ChEMBL document CHEMBL3826912 (ACS Med Chem Lett, 2016)

Legend:
in vivo = details: rat, po, 5 mg/kg
Description: AUC (0 to 24 hrs) in rat at 5 mg/kg, po

in vitro = details: human, MT2 cells
Description: Cytotoxicity against human MT2 cells

[1] = Inhibition of CYP450 in human microsomes; assay type: ADME
[2] = Half life in monkey liver microsomes at 0.5 uM in presence of NADPH by LC-MS/MS analysis; assay type: ADME, Macaca mulatta; details: rhesus monkey
[3] = AUCtotal in Cynomolgus monkey at 2 mg/kg administered via oral gavage by LC-MS/MS analysis; assay type: ADME, organism-based, Macaca fascicularis; design: dose 2 mg/kg, route oral, time AUCmax; details: in vivo
[4] = Oral bioavailability in mouse at 5 mg/kg by LC-MS/MS analysis; assay type: ADME, organism-based; details: in vivo
[5] = Half life in dog liver microsomes at 0.5 uM in presence of NADPH by LC-MS/MS analysis; assay type: ADME, Canis lupus familiaris
[6] = Drug level in Cynomolgus monkey at 2 mg/kg administered via oral gavage after 24 hrs by LC-MS/MS analysis; assay type: ADME, organism-based, Macaca fascicularis; details: in vivo, read-out: Drug uptake
[7] = Protein binding in human serum by ultracentrifugation method; assay type: ADME; details: read-out: PB
[8] = AUCtotal in rat at 5 mg/kg administered via oral gavage by LC-MS/MS analysis; assay type: ADME, organism-based; design: dose 5 mg/kg, time AUCmax, route oral; details: in vivo
[9] = Drug level in rat at 5 mg/kg administered via oral gavage after 24 hrs by LC-MS/MS analysis; assay type: ADME, organism-based; details: in vivo, read-out: Drug uptake
Salmonella typhimurium = assay: Mutagenicity in Salmonella typhimurium; assay type: toxicity, organism-based; details: salmonella enterica subsp. enterica serovar typhimurium
[10] = Oral bioavailability in Cynomolgus monkey at 2 mg/kg by LC-MS/MS analysis; assay type: ADME, organism-based, Macaca fascicularis; details: in vivo
[11] = Oral bioavailability in rat at 5 mg/kg by LC-MS/MS analysis; assay type: ADME, organism-based; details: in vivo
[12] = Oral bioavailability in dog at 1.85 mg/kg by LC-MS/MS analysis; assay type: ADME, organism-based, Canis lupus familiaris; details: in vivo
[13] = Half life in rat liver microsomes at 0.5 uM in presence of NADPH by LC-MS/MS analysis; assay type: ADME
[14] = Drug level in mouse at 5 mg/kg administered via oral gavage after 24 hrs by LC-MS/MS analysis; assay type: ADME, organism-based; details: in vivo, read-out: Drug uptake
[15] = AUCtotal in dog at 1.85 mg/kg administered via oral gavage by LC-MS/MS analysis; assay type: ADME, organism-based, Canis lupus familiaris; design: dose 1.85 mg/kg, time AUCmax, route oral; details: in vivo
[16] = Half life in iv dosed dog by LC-MS/MS analysis; assay type: ADME, organism-based, Canis lupus familiaris; details: in vivo
[17] = AUCtotal in mouse at 5 mg/kg administered via oral gavage by LC-MS/MS analysis; assay type: ADME, organism-based; design: dose 5 mg/kg, route oral, time AUCmax; details: in vivo
[18] = Half life in iv dosed Cynomolgus monkey by LC-MS/MS analysis; assay type: ADME, organism-based, Macaca fascicularis; details: in vivo
[19] = Drug level in dog at 1.85 mg/kg administered via oral gavage after 24 hrs by LC-MS/MS analysis; assay type: ADME, organism-based, Canis lupus familiaris; details: in vivo, read-out: Drug uptake
[20] = Half life in iv dosed rat by LC-MS/MS analysis; assay type: ADME, organism-based; details: in vivo
[21] = Half life in iv dosed mouse by LC-MS/MS analysis; assay type: ADME, organism-based; details: in vivo
[22] = Half life in human liver microsomes at 0.5 uM in presence of NADPH by LC-MS/MS analysis; assay type: ADME
[23] = Dissociation constant, pKa of the compound; assay type: physicochemical

Question: With `C=C(C)[C@@H]1CC[C@]2(CNCCCN3CCCC3=O)CC[C@]3(C)[C@H](CC[C@@H]4[C@@]5(C)CC=C(c6ccc(C(=O)O)cc6)C(C)(C)[C@@H]5CC[C@]43C)[C@@H]12` as the compound, how does the AUC(0-t) at 24 h (in vivo) read?
Answer: 1.04 µM·h

Question: And the CC50 (in vitro)?
Answer: 5.8 nM

Question: With `C=C(C)[C@@H]1CC[C@]2(NCCN3CCS(=O)(=O)CC3)CC[C@]3(C)[C@H](CC[C@@H]4[C@@]5(C)CC=C(c6ccc(C(=O)O)cc6)C(C)(C)[C@@H]5CC[C@]43C)[C@@H]12` [BMS-955176] as the compound, how does the “inhibition (INH)” value [1] read?
Answer: Not Active

Question: And the half-life at 0.5 µM [2]?
Answer: 0.2 h

Question: What about the AUC [3] of the same compound?
Answer: 0.995 µM·h

Question: And the AUC(0-t) at 24 h (in vivo)?
Answer: 4.13 µM·h

Question: And the bioavailability [4]?
Answer: 27%

Question: What about the half-life at 0.5 µM [5] of the same compound?
Answer: > 2 h

Question: And the concentration at 24 h [6]?
Answer: 17.4 nM

Question: And the fraction unbound [7]?
Answer: < 0.16

Question: And the AUC [8]?
Answer: 14.2 µM·h

Question: What about the concentration at 24 h [9] of the same compound?
Answer: 128 nM

Question: And the Activity (Salmonella typhimurium)?
Answer: Non-toxic

Question: What about the bioavailability [10] of the same compound?
Answer: 3.9%

Question: What about the bioavailability [11] of the same compound?
Answer: 26%

Question: And the bioavailability [12]?
Answer: 8.5%

Question: And the half-life at 0.5 µM [13]?
Answer: > 2 h

Question: What about the concentration at 24 h [14] of the same compound?
Answer: 256 nM

Question: What about the AUC [15] of the same compound?
Answer: 29.4 µM·h

Question: What about the half-life [16] of the same compound?
Answer: 31.7 h

Question: What about the AUC [17] of the same compound?
Answer: 28.9 µM·h

Question: And the half-life [18]?
Answer: 8.6 h

Question: What about the CC50 (in vitro) of the same compound?
Answer: 9.2 nM

Question: What about the concentration at 24 h [19] of the same compound?
Answer: 559 nM

Question: And the half-life [20]?
Answer: 6.6 h

Question: What about the half-life [21] of the same compound?
Answer: 8.9 h

Question: What about the half-life at 0.5 µM [22] of the same compound?
Answer: > 2 h

Question: For `C=C(C)[C@@H]1CC[C@]2(CNCCN(C)C)CC[C@]3(C)[C@H](CC[C@@H]4[C@@]5(C)CC=C(c6ccc(C(=O)O)cc6)C(C)(C)[C@@H]5CC[C@]43C)[C@@H]12`, which AUC(0-t) at 24 h (in vivo) is on record?
Answer: 0.153 µM·h

Question: And the CC50 (in vitro)?
Answer: 1.24 nM

Question: With `C=C(C)[C@@H]1CC[C@]2(C(=O)NCCN(C)C)CC[C@]3(C)[C@H](CC[C@@H]4[C@@]5(C)CC=C(c6ccc(C(=O)O)cc6)C(C)(C)[C@@H]5CC[C@]43C)[C@@H]12` as the compound, how does the AUC(0-t) at 24 h (in vivo) read?
Answer: 1.62 µM·h

Question: What about the CC50 (in vitro) of the same compound?
Answer: 2.61 nM

Question: With `C=C(C)[C@@H]1CC[C@]2(CNCCO)CC[C@]3(C)[C@H](CC[C@@H]4[C@@]5(C)CC=C(c6ccc(C(=O)O)cc6)C(C)(C)[C@@H]5CC[C@]43C)[C@@H]12` as the compound, how does the AUC(0-t) at 24 h (in vivo) read?
Answer: 4.98 µM·h

Question: And the CC50 (in vitro)?
Answer: 8.48 nM

Question: Which CC50 (in vitro) does the source give for `C=C(C)[C@@H]1CC[C@]2(CNC(C)C)CC[C@]3(C)[C@H](CC[C@@H]4[C@@]5(C)CC=C(c6ccc(C(=O)O)cc6)C(C)(C)[C@@H]5CC[C@]43C)[C@@H]12` here?
Answer: 2.36 nM

Question: For `C=C(C)[C@@H]1CC[C@]2(C(=O)O)CC[C@]3(C)[C@H](CC[C@@H]4[C@@]5(C)CC=C(c6ccc(C(=O)O)cc6)C(C)(C)[C@@H]5CC[C@]43C)[C@@H]12`, which AUC(0-t) at 24 h (in vivo) is on record?
Answer: 5.72 µM·h

Question: What about the CC50 (in vitro) of the same compound?
Answer: 27.2 nM

Question: Which AUC(0-t) at 24 h (in vivo) does the source give for `C=C(C)[C@@H]1CC[C@]2(CNCCCN3CCS(=O)(=O)CC3)CC[C@]3(C)[C@H](CC[C@@H]4[C@@]5(C)CC=C(c6ccc(C(=O)O)cc6)C(C)(C)[C@@H]5CC[C@]43C)[C@@H]12` here?
Answer: 1.71 µM·h

Question: What about the pKa [23] of the same compound?
Answer: 4.5

Question: What about the CC50 (in vitro) of the same compound?
Answer: 3.5 nM
